Columns and labels:
Type in all cases: functional
COLO 205 = test: Cytotoxicity against human COLO205 cells assessed as growth inhibition at 50 uM after 48 hrs by sulforhodamine B assay relative to control; settings: COLO 205, 48 h, read-out: GI
HCT-116 = test: Cytotoxicity against human HCT116 cells assessed as growth inhibition at 50 uM after 48 hrs by sulforhodamine B assay relative to control; settings: HCT-116, 48 h, read-out: GI
THP-1 = test: Cytotoxicity against human THP1 cells assessed as growth inhibition at 50 uM after 48 hrs by sulforhodamine B assay relative to control; settings: THP-1, 48 h, read-out: GI
PC-3 = test: Cytotoxicity against human PC3 cells assessed as growth inhibition at 50 uM after 48 hrs by sulforhodamine B assay relative to control; settings: PC-3, 48 h, read-out: GI

COc1cc(/C=C/C(=O)/C=C/c2ccc(Cl)cc2)ccc1OCc1cn(CCN2C(=O)C(=O)c3cc(Cl)ccc32)nn1
inhibition of growth at 50 µM (COLO 205): 29% | inhibition of growth at 50 µM (HCT-116): 36% | inhibition of growth at 50 µM (THP-1): 30% | inhibition of growth at 50 µM (PC-3): 25%

COc1cc(/C=C/C(=O)/C=C/c2ccc(Cl)cc2)ccc1OCc1cn(CCN2C(=O)C(=O)c3cc(Br)ccc32)nn1
inhibition of growth at 50 µM (COLO 205): 24% | inhibition of growth at 50 µM (HCT-116): 29% | inhibition of growth at 50 µM (THP-1): 25% | inhibition of growth at 50 µM (PC-3): 23%

COc1cccc(/C=C/C(=O)/C=C/c2ccc(OCc3cn(CCN4C(=O)C(=O)c5cc(Br)ccc54)nn3)c(OC)c2)c1
inhibition of growth at 50 µM (COLO 205): 56% | inhibition of growth at 50 µM (HCT-116): 57% | inhibition of growth at 50 µM (THP-1): 54% | inhibition of growth at 50 µM (PC-3): 51%

COc1cc(/C=C/C(=O)/C=C/c2cccc(Br)c2)ccc1OCc1cn(CCN2C(=O)C(=O)c3cc(Br)ccc32)nn1
inhibition of growth at 50 µM (COLO 205): 11% | inhibition of growth at 50 µM (HCT-116): 13% | inhibition of growth at 50 µM (THP-1): 12% | inhibition of growth at 50 µM (PC-3): 13%

COc1cc(/C=C/C(=O)/C=C/c2ccc(Br)cc2)ccc1OCc1cn(CCN2C(=O)C(=O)c3cc(Cl)ccc32)nn1
inhibition of growth at 50 µM (COLO 205): 20% | inhibition of growth at 50 µM (HCT-116): 24% | inhibition of growth at 50 µM (THP-1): 25% | inhibition of growth at 50 µM (PC-3): 23%

COc1cc(/C=C/C(=O)/C=C/c2ccco2)ccc1OCc1cn(CCN2C(=O)C(=O)c3cc(Cl)ccc32)nn1
inhibition of growth at 50 µM (COLO 205): 39% | inhibition of growth at 50 µM (HCT-116): 47% | inhibition of growth at 50 µM (THP-1): 41% | inhibition of growth at 50 µM (PC-3): 40%

COc1cc(/C=C/C(=O)/C=C/c2ccc([N+](=O)[O-])cc2)ccc1OCc1cn(CCN2C(=O)C(=O)c3ccccc32)nn1
inhibition of growth at 50 µM (COLO 205): 35% | inhibition of growth at 50 µM (HCT-116): 39% | inhibition of growth at 50 µM (THP-1): 35% | inhibition of growth at 50 µM (PC-3): 33%

COc1cc(/C=C/C(=O)/C=C/c2cccc([N+](=O)[O-])c2)ccc1OCc1cn(CCN2C(=O)C(=O)c3ccccc32)nn1
inhibition of growth at 50 µM (COLO 205): 22% | inhibition of growth at 50 µM (HCT-116): 25% | inhibition of growth at 50 µM (THP-1): 24% | inhibition of growth at 50 µM (PC-3): 20%

COc1cc(/C=C/C(=O)/C=C/c2cccs2)ccc1OCc1cn(CCN2C(=O)C(=O)c3cc(Br)ccc32)nn1
inhibition of growth at 50 µM (COLO 205): 30% | inhibition of growth at 50 µM (HCT-116): 34% | inhibition of growth at 50 µM (THP-1): 31% | inhibition of growth at 50 µM (PC-3): 28%

COc1cc(/C=C/C(=O)/C=C/c2ccc([N+](=O)[O-])cc2)ccc1OCc1cn(CCN2C(=O)C(=O)c3cc(Cl)ccc32)nn1
inhibition of growth at 50 µM (HCT-116): 11% | inhibition of growth at 50 µM (PC-3): 10%

COc1cc(/C=C/C(=O)/C=C/c2ccc(Br)cc2)ccc1OCc1cn(CCN2C(=O)C(=O)c3ccccc32)nn1
inhibition of growth at 50 µM (COLO 205): 47% | inhibition of growth at 50 µM (HCT-116): 49% | inhibition of growth at 50 µM (THP-1): 48% | inhibition of growth at 50 µM (PC-3): 44%

COc1cc(/C=C/C(=O)/C=C/c2ccc(Br)cc2)ccc1OCc1cn(CCN2C(=O)C(=O)c3cc(Br)ccc32)nn1
inhibition of growth at 50 µM (COLO 205): 19% | inhibition of growth at 50 µM (HCT-116): 20% | inhibition of growth at 50 µM (THP-1): 21% | inhibition of growth at 50 µM (PC-3): 17%

COc1cc(/C=C/C(=O)/C=C/c2ccc(Cl)cc2)ccc1OCc1cn(CCN2C(=O)C(=O)c3ccccc32)nn1
inhibition of growth at 50 µM (COLO 205): 50% | inhibition of growth at 50 µM (HCT-116): 51% | inhibition of growth at 50 µM (THP-1): 49% | inhibition of growth at 50 µM (PC-3): 45%

COc1cc(/C=C/C(=O)/C=C/c2cccs2)ccc1OCc1cn(CCN2C(=O)C(=O)c3cc(Cl)ccc32)nn1
inhibition of growth at 50 µM (COLO 205): 35% | inhibition of growth at 50 µM (HCT-116): 44% | inhibition of growth at 50 µM (THP-1): 38% | inhibition of growth at 50 µM (PC-3): 37%

COc1cc(/C=C/C(=O)/C=C/c2ccco2)ccc1OCc1cn(CCN2C(=O)C(=O)c3cc(Br)ccc32)nn1
inhibition of growth at 50 µM (COLO 205): 33% | inhibition of growth at 50 µM (HCT-116): 39% | inhibition of growth at 50 µM (THP-1): 37% | inhibition of growth at 50 µM (PC-3): 31%

COc1cc(/C=C/C(=O)/C=C/c2ccc([N+](=O)[O-])cc2)ccc1OCc1cn(CCN2C(=O)C(=O)c3cc(Br)ccc32)nn1
inhibition of growth at 50 µM (COLO 205): 10% | inhibition of growth at 50 µM (HCT-116): 10% | inhibition of growth at 50 µM (PC-3): 10%

— ChEMBL document CHEMBL3627713, “Triazole linked mono carbonyl curcumin-isatin bifunctional hybrids as novel anti tubulin agents: Design, synthesis, biological evaluation and molecular modeling studies” (Bioorg Med Chem, 2015)
